Source: patent publication US8354522B2, “Immunostimulatory oligoribonucleotides” (Coley Pharmaceutical GmbH, priority 2005, dated 2013)
pEC50: −log10 of the molar value. Where two headings read alike, the source gives them in different places.

Legend:
Human PBMC = assay: Cytokine production upon human PBMC stimulation (ORN complexed to DOTAP, 16 h, ELISA); format: cell-based; parameters: key to IFN-alpha / TNF-alpha: +: cytokine production; −: no cytokine production; details: for IFN-alpha production upon PBMC stimulation (in words) / pEC50 / IFN-alpha max activity / TNF-alpha max activity: human PBMC; for IFN-alpha / TNF-alpha: human PBMC stimulated for 16 h, supernatant ELISA; for pEC50 / IFN-alpha max activity / TNF-alpha max activity: ORN complexed to DOTAP, 16 h; for pEC50: full titration 2 μM to 0.9 nM; for IFN-alpha max activity / TNF-alpha max activity: mean max activity at 0.6 μM, 3-6 blood donors
Description: Human peripheral blood mononuclear cells (PBMCs) were isolated from healthy donors, plated, and stimulated in vitro with various test and control immunostimulatory agents for 16 hours. After 16 hours, the supernatants were collected and then analyzed by ELISA assay. N-U-R1-R2,-Containing Oligoribonucleotides were tested complexed to DOTAP and with full titration curves (7 concentrations), starting from 2 μM ORN complexed to 25 μg/ml DOTAP and with 1/3 dilution steps. Also included were certain negative controls, including medium alone and DOTAP (25 μg/ml culture well; “Liposomes”) alone. The control immunostimulatory agents included the imidazoquinoline R-848 (2 μM with 1/3 dilution steps and 7 concentrations) the reported ligand for TLR7, ORN having TLR8 motifs such as AU and AUU sequences (SEQ ID NO:13-SEQ ID NO:15) ORN having TLR7/8 motifs such as CU, GU and GUU sequences (SEQ ID NO:19-SEQ ID NO:23).
Human PBMC were stimulated with ORN complexed to DOTAP. After 16 hours supernatants were harvested and TNF-alpha and IFN-alpha levels were measured. Mean/Max activities at 0.6 μM of 3-6 blood donors and two individual experiments were determined. […] TLR8 and TLR7/8 ORN are divided by a red line.
Human PBMC were stimulated with ORN complexed to DOTAP. After 16 hours supernatants were harvested and IFN-alpha levels were measured. Mean/Max activities at 0.6 μM and EC50 of full titration curves (range: 2 μM to 0.9 nM) of 3-6 blood donors and two individual experiments were determined. […] Low EC50/high Max activity represents TLR7/8 ORN (FIG. 5a) whereas high EC50 and low Max activity represents TLR8 ORN (FIG. 5b).
The ORN sequences listed in Table 1 were tested for IFN-alpha and TNF-alpha production upon human PBMC stimulation. Human PBMC were stimulated for 16 h with the indicated ORN, and supernatants were harvested and cytokine production measured by ELISA. Table 2 summarizes the min/max activity and EC50 of ORN for IFN-alpha and TNF-alpha production.

isolated pDC = assay: IFN-alpha production upon isolated pDC stimulation; format: cell-based, human; details: 0.5 μM ORN complexed to 10 μg/ml DOTAP, 16 h
Description: FIG. 2 is a set of bar graphs depicting ORN induced cytokine production upon isolated pDC (FIG. 2a), monocytes (FIG. 2b) and mDC (FIG. 2c) stimulation. Cells were stimulated with 0.5 μM ORN complexed to 10 μg/ml DOTAP, 0.5 μM CpG ODN or DOTAP or media alone and IFN-alpha (FIG. 2a), TNF-alpha […] and IL-12p40 (FIG. 2c) were measured.
A similar assay testing different ORN sequences was performed using isolated pDC, monocytes and mDC stimulation. Cells were stimulated with 0.5 μM ORN complexed to 10 μg/ml DOTAP, 0.5 μM CpG ODN or DOTAP or media alone. After 16 h the supernatants were harvested and IFN-alpha, TNF-alpha and IL-12p40 levels were measured by ELISA.

Bovine PBMC = assay: Cytokine production by bovine PBMC (48 hours, ELISA); format: cell-based; details: 10 μg/ml (H.D.) and 2.5 μg/ml (L.D.)
Description: FIG. 11 is a set of bar graphs showing differences between TLR8 ORN (SEQ ID NO:13) and TLR7/8 ORN (SEQ ID NO:21). SEQ ID NO:5 ORN was used as a control. Bovine PBMC were incubated with either 10 μg/ml ORN (HD) or 2.5 μg/ml ORN (LD) for 48 hours. Supernatants were collected and analyzed by ELISA. FIGS. 11a-c show the level of IL-12, IFN-γ, and TNF-alpha, respectively.
The assay was repeated with a TLR8 ORN (SEQ ID NO:13), a TLR 7/8 ORN (SEQ ID NO:21) and a control ORN (SEQ ID NO:5) (Table 3) at both a high dose (H.D., 10 μg/ml) and a low dose (L.D., 2.5 μg/ml).

| Substance | IFN-alpha production upon PBMC stimulation (in words) (Human PBMC) | IFN-alpha (Human PBMC) | TNF-alpha (Human PBMC) | IFN-alpha production upon pDC stimulation (in words) (isolated pDC) | IFN-γ production (Bovine PBMC) | pEC50 (Human PBMC; read-out: IFN-alpha EC50) | pEC50 (Human PBMC; read-out: TNF-alpha EC50) | IFN-alpha max activity (Human PBMC) | TNF-alpha max activity (Human PBMC) |
| --- | --- | --- | --- | --- | --- | --- | --- | --- | --- |
| A*U*A*U*A*U*A*U*A*U*A*U*A*U*A*U*A*U*A*U (AUAUAUAUAUAUAUAUAUAU; chemistry not fully specified) [SEQ ID NO: 12] | no IFN-alpha cytokine production | − | + | no IFN-alpha cytokine production |  |  |  |  |  |
| C*C*G*U*C*U*G*U*U*G*U*G*U*G*A*C*U*C (CCGUCUGUUGUGUGACUC; listed as RNA, chemistry not fully specified) [SEQ ID NO: 5, reference compound] |  |  |  |  | stimulated production of IFN-γ |  |  |  |  |
| C*C*G*A*G*C*C*G*A*A*U*U*C*A*C*C (CCGAGCCGAAUUCACC; listed as RNA, chemistry not fully specified) [SEQ ID NO: 80] |  |  |  |  |  | 7.48 | 6.66 | 1225 pg/mL | 28108 pg/mL |
| C*C*G*A*G*C*C*G*A*A*G*C*U*G*C*C (CCGAGCCGAAGCUGCC; listed as RNA, chemistry not fully specified) [SEQ ID NO: 88] |  |  |  |  |  | < 5.70 |  | 73.19 pg/mL | 11996 pg/mL |
| U*U*I*U*U*I*U*U*I*U*U*I*U*U*I*U*U*I*U*U (UUNUUNUUNUUNUUNUUNUU; inosine, phosphorothioate linkages, chemistry not fully specified) [SEQ ID NO: 28] |  | + | + |  |  |  |  |  |  |
| C*C*G*A*G*C*C*G*A*A*U*A*A*C*C*C (CCGAGCCGAAUAACCC; listed as RNA, chemistry not fully specified) [SEQ ID NO: 40] |  |  |  |  |  | ≤ 5.82 | 6.45 | 235.3 pg/mL | 18083 pg/mL |
| C*C*G*A*G*C*C*G*A*A*G*G*U*A*C*C (CCGAGCCGAAGGUACC; listed as RNA, chemistry not fully specified) [SEQ ID NO: 82] |  |  |  |  |  | < 5.70 | 6.66 | 204 pg/mL | 12595 pg/mL |
| C*C*G*A*G*C*C*G*A*U*U*G*C*A*C*C (CCGAGCCGAUUGCACC; listed as RNA, chemistry not fully specified) [SEQ ID NO: 74] |  |  |  |  |  | 6.38 | 6.48 | 609.1 pg/mL | 30958 pg/mL |
| U*U*A*G*G*C*A*C (UUAGGCAC; phosphorothioate linkages, chemistry not fully specified) [SEQ ID NO: 2] |  | − | + |  |  |  |  |  |  |
| U*U*U*U*A*U*U*U*U*A*U*U*U*U*A*U*U*U*U*A (UUUUAUUUUAUUUUAUUUUA; chemistry not fully specified) [SEQ ID NO: 15] | induced IFN-alpha production | + | + |  |  |  |  |  |  |
| C*C*G*A*G*C*C*G*A*A*U*A*C*C*C*C (CCGAGCCGAAUACCCC; listed as RNA, chemistry not fully specified) [SEQ ID NO: 42] |  |  |  |  |  | ≤ 5.82 | 6.40 | 392.4 pg/mL | 17418 pg/mL |
| C*C*G*A*G*C*C*G*C*A*U*U*A*C*C*C (CCGAGCCGCAUUACCC; listed as RNA, chemistry not fully specified) [SEQ ID NO: 48] |  |  |  |  |  | 6.12 | 6.10 | 543.4 pg/mL | 9988 pg/mL |
| C*C*G*A*G*C*C*G*A*U*C*U*U*A*C*C (CCGAGCCGAUCUUACC; listed as RNA, chemistry not fully specified) [SEQ ID NO: 64] |  |  |  |  |  | 6.24 | 6.54 | 1421 pg/mL | 30712 pg/mL |
| C*C*G*A*G*C*C*G*C*A*U*A*C*C*C*C (CCGAGCCGCAUACCCC; listed as RNA, chemistry not fully specified) [SEQ ID NO: 45] |  |  |  |  |  | 5.77 | 6.12 | 98.44 pg/mL | 10491 pg/mL |
| C*C*G*A*G*C*C*G*C*A*A*U*U*C*C*C [SEQ ID NO: 50] (CCGAGCCGCAAUUCCC; listed as RNA, chemistry not fully specified) |  |  |  |  |  | 6.25 | 6.25 | 2614 pg/mL | 11141 pg/mL |
| C*C*G*A*G*C*C*G*A*U*U*G*A*A*C*C (CCGAGCCGAUUGAACC; listed as RNA, chemistry not fully specified) [SEQ ID NO: 76] |  |  |  |  |  | 5.81 | 6.96 | 448.6 pg/mL | 26371 pg/mL |
| C*C*G*A*G*C*C*G*C*A*U*C*C*C*C*C (CCGAGCCGCAUCCCCC; listed as RNA, chemistry not fully specified) [SEQ ID NO: 46] |  |  |  |  |  | < 5.70 | 6.12 | 74.76 pg/mL | 7096 pg/mL |
| C*C*G*A*G*C*C*G*A*C*U*G*U*A*C*C (CCGAGCCGACUGUACC; listed as RNA, chemistry not fully specified) [SEQ ID NO: 61] |  |  |  |  |  | 6.13 | 6.85 | 587.7 pg/mL | 42180 pg/mL |
| C*C*G*A*G*C*C*G*A*U*G*U*U*A*C*C (CCGAGCCGAUGUUACC; listed as RNA, chemistry not fully specified) [SEQ ID NO: 66] |  |  |  |  |  | 6.25 | 7.29 | 1616 pg/mL | 43098 pg/mL |
| U*U*G*U*U*G*U (UUGUUGU; phosphorothioate linkages, chemistry not fully specified) [SEQ ID NO: 29] |  | + | + |  |  |  |  |  |  |
| G*U*A*G*G*C*A*C (GUAGGCAC; phosphorothioate linkages, chemistry not fully specified) [SEQ ID NO: 1] |  | − | + |  |  |  |  |  |  |
| C*C*G*A*G*C*C*G*A*A*G*C*U*C*C*C (CCGAGCCGAAGCUCCC; listed as RNA, chemistry not fully specified) [SEQ ID NO: 84] |  |  |  |  |  | < 5.70 | 6.42 | 67.76 pg/mL | 8545 pg/mL |
| C*C*G*A*G*C*C*G*A*A*U*C*C*C*C*C (CCGAGCCGAAUCCCCC; listed as RNA, chemistry not fully specified) [SEQ ID NO: 44] |  |  |  |  |  | ≤ 5.82 | 6.49 | 305.6 pg/mL | 19473 pg/mL |
| U*A*U*A*U*A*U (UAUAUAU; phosphorothioate linkages, chemistry not fully specified) [SEQ ID NO: 33] |  | − | + |  |  |  |  |  |  |
